US20210278408A1, “METHODS OF TREATMENT OF CANCER WITH SUBSTITUTED PYRROLE AND PYRAZOLE COMPOUNDS AND DIAGNOSIS OF CANCERS SUSCEPTIBLE TO TREATMENT WITH SUBSTITUTED PYRROLE AND PYRAZOLE COMPOUNDS” (Bantam Pharmaceutical, LLC, priority 2018, published 2021)
Like-named read-outs stand apart in the source and are kept apart here.

Test system: 407 cancer cell lines
Assay: Cell viability of cancer cell lines (IC50), CellTiter-Glo Viability Assay, 96 h
Format: cell-based
Details: for IC50: read-out: Absolute IC50
Method: Viability was determined by using the 50% inhibitory concentration (IC50) as determined with the CellTiter-Glo® Viability Assay (Promega).
Experiments were initiated by first thawing and equilibrating the CellTiter-Glo® Buffer to room temperature. The lyophilized CellTiter-Glo® Substrate was also equilibrated to room temperature. The lyophilized substrate was reconstituted with the CellTiter-Glo® buffer to form the CellTiter-Glo® Reagent.
Cells were harvested during the logarithmic growth period, counted, and the cell concentration adjusted to 4.44×10^4 cells/mL using culture medium.
Cells were allowed to grow overnight and the following day, the TO reading was obtained by adding 10 μL culture medium to each well of Plate A. The plate was allowed to equilibrate at room temperature for thirty minutes, after which 50 μL CellTiter-Glo® reagent was added to each well. The contents were mixed for 5 min on an orbital shaker to induce cell lysis. Plates were incubated for 20 minutes to stabilize the luminescent signal and the TO luminescence recorded.
Test plate B was incubated for 96 h in the humidified incubator at 37° C. with 5% CO2.
Following the incubation, the plate was equilibrated at room temperature for thirty minutes. CellTiter-Glo® (50 μL) was added to each well of the plate and contents mixed for five minutes on an orbital shaker to induce cell lysis. The luminescent signal was allowed to stabilize at room temperature for 20 minutes and the luminescence recorded.
IC50 (EC50) was calculated using a dose-response curve, fitted using a nonlinear regression model with a sigmoidal dose response. Survival rate was calculated using the formula:
The Surviving rate (%)=(LumTest article−LumMedium control)/(LumNon-treated−LumMedium control)×100%.
Absolute IC50 (EC50) was calculated according to the dose-response curve generated by the statistical software (GraphPad Prism 5.0).

N.N.[Cl][Pt][Cl] [Cisplatin, reference compound]
IC50 (22Rv1 cells, 96 h): 3050 nM
IC50 (769-P cells, 96 h): 970 nM
IC50 (786-O cells, 96 h): 1430 nM
IC50 (8505C): 2010 nM
IC50 (A3/KAW cells, 96 h): 930 nM
IC50 (A253 cells, 96 h): 1240 nM
IC50 (A498 cells, 96 h): 4280 nM
IC50 (A549 cells, 96 h): 4350 nM
IC50 (A875 cells, 96 h): 1860 nM
IC50 (A2058, 96 h): 770 nM
IC50 (A2780 cells, 96 h): 1380 nM
IC50 (A2780cis cells, 96 h): 5550 nM
IC50 (A-172 cells, 96 h): 8580 nM
IC50 (A-204 cells, 96 h): 1050 nM
IC50 (A-375, 96 h): 1040 nM
IC50 (A-427 cells, 96 h): 5780 nM
IC50 (A-431, 96 h): 2070 nM
IC50 (A-673 cells, 96 h): 260 nM
IC50 (ACHN cells, 96 h): 1740 nM
IC50 (AGS cells, 96 h): 4990 nM
IC50 (AMO-1 cells, 96 h): 1920 nM
IC50 (AN3 CA, 96 h): 3000 nM
IC50 (ASH-3 cells, 96 h): 2720 nM
% inhibition at top conc. (AsPC-1 cells, 96 h): 78.18%
IC50 (AsPC-1 cells, 96 h): 4940 nM
IC50 (BT474 cells, 96 h): 59000 nM
IC50 (BT-20 cells, 96 h): 2150 nM
% inhibition at top conc. (BT-483): 75.40%
IC50 (BT-483): 48200 nM
IC50 (BT-549 cells, 96 h): 4700 nM
IC50 (BxPC-3): 1270 nM
IC50 (C4-2, 96 h): 14900 nM
% inhibition at top conc. (C666-1 cells, 96 h): 73.03%
IC50 (C666-1 cells, 96 h): 18100 nM
IC50 (C-33 A cells, 96 h): 920 nM
IC50 (CADO-ES1): 1030 nM
IC50 (CAL-27 cells, 96 h): 890 nM
IC50 (CAL-120): 7910 nM
IC50 (CAMA-1, 96 h): 9440 nM
IC50 (CCK-81 cells, 96 h): 4510 nM
IC50 (CCRF-CEM): 550 nM
IC50 (CFPAC-1): 4130 nM
IC50 (COLO 205, 96 h): 1970 nM
IC50 (COLO 320DM, 96 h): 3180 nM
IC50 (COV644 cells, 96 h): 14200 nM
IC50 (Ca Ski cells, 96 h): 6440 nM
IC50 (Caki-2): 3350 nM
IC50 (Calu-1): 4770 nM
% inhibition at top conc. (Calu-3, 96 h): 77.35%
IC50 (Calu-3, 96 h): 350 nM
IC50 (Calu-6): 710 nM
IC50 (Caov-3 cells, 96 h): 3610 nM
IC50 (Capan-1): 680 nM
IC50 (Capan-2): 21900 nM
IC50 (CoC1/DDP cells, 96 h): 5780 nM
IC50 (CoC1 cells, 96 h): 3240 nM
IC50 (DLD-1): 2430 nM
IC50 (DMS 53 cells, 96 h): 2850 nM
IC50 (DMS 79): 810 nM
IC50 (DMS 114 cells, 96 h): 2020 nM
IC50 (DOHH-2 cells, 96 h): 190 nM
IC50 (DU 145, 96 h): 1150 nM
IC50 (DU4475): 1350 nM
IC50 (DV-90 cells, 96 h): 3250 nM
IC50 (Daoy cells, 96 h): 390 nM
IC50 (Daudi cells, 96 h): 210 nM
IC50 (Detroit 562 cells, 96 h): 1350 nM
IC50 (DoTc2 4510 cells, 96 h): 2840 nM
IC50 (EBC-1, 96 h): 4610 nM
IC50 (EFM-192A, 96 h): 11300 nM
IC50 (EJM cells, 96 h): 6740 nM
IC50 (EOL-1): 460 nM
IC50 (ES-2 cells, 96 h): 3510 nM
IC50 (FTC-133): 980 nM
IC50 (G-292 clone A141B1 cells, 96 h): 1110 nM
IC50 (GTL-16 cells, 96 h): 1090 nM
IC50 (H4 cells, 96 h): 2260 nM
IC50 (HBL-1): 1210 nM
IC50 (HCC38): 2860 nM
IC50 (HCC 94 cells, 96 h): 1980 nM
IC50 (HCC827 cells, 96 h): 8580 nM
IC50 (HCC1187 cells, 96 h): 2010 nM
IC50 (HCC1428): 34900 nM
IC50 (HCC1500): 7640 nM
IC50 (HCC1569): 5780 nM
IC50 (HCC1806 cells, 96 h): 2230 nM
IC50 (HCC1937): 5070 nM
IC50 (HCC1954): 7180 nM
IC50 (HCC2218, 96 h): 10800 nM
IC50 (HCC2935): 51700 nM
IC50 (HCC4006, 96 h): 5760 nM
IC50 (HCC-78 cells, 96 h): 2250 nM
IC50 (HCCC-9810): 2960 nM
% inhibition at top conc. (HCCLM3 cells, 96 h): 60.88%
IC50 (HCCLM3 cells, 96 h): 10800 nM
IC50 (HCT-8): 9040 nM
